Data as given in patent publication US6737383B1, “Herbicidal oxadiazolidines” (priority 1999, dated 2004).

Key:
cocklebur = assay: Test B pre/postemergence cocklebur; assay type: in vivo, Xanthium strumarium
How it was run: (§1)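 Response is a visual 0-to-10 score relative to untreated plants, where 0 means no effect and 10 means complete control, taken twelve to sixteen days after application. Treatments went onto soil at planting and onto foliage of 1- to 4-leaf plants, using a surfactant-containing non-phytotoxic solvent.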

crabgrass = assay: Test B pre/postemergence crabgrass; assay type: in vivo, Digitaria sanguinalis
How it was run: as §1

velvetleaf = assay: Test B pre/postemergence velvetleaf; assay type: in vivo, Abutilon theophrasti
How it was run: as §1

smallflower flatsedge = assay: Test B flood test smallflower flatsedge; assay type: in vivo, Cyperus difformis
How it was run: (§2)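 Plants were grown to the 2-leaf stage before treatment with test chemical, then held in a greenhouse for twelve to sixteen days. Injury was visually rated against untreated controls on a 0–10 scale, where 0 is no effect and 10 is complete control.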

rice = assay: Test B flood test rice; assay type: in vivo, Oryza sativa
How it was run: as §2

wheat = assay: Test B pre/postemergence wheat; assay type: in vivo, Triticum aestivum
How it was run: as §1

bedstraw = assay: Test B pre/postemergence bedstraw; assay type: in vivo, Galium aparine
How it was run: as §1

soybean = assay: Test B pre/postemergence soybean; assay type: in vivo, Glycine max
How it was run: as §1

rape = assay: Test B pre/postemergence rape; assay type: in vivo, Brassica napus
How it was run: as §1

pigweed = assay: Test B pre/postemergence pigweed; assay type: in vivo, Amaranthus retroflexus
How it was run: as §1

giant foxtail = assay: Test B pre/postemergence giant foxtail; assay type: in vivo, Setaria faberii
How it was run: as §1

purple nutsedge = assay: Test B pre/postemergence purple nutsedge; assay type: in vivo, Cyperus rotundus; conditions: Postemergence
How it was run: as §1

wild oat = assay: Test B pre/postemergence wild oat; assay type: in vivo, Avena fatua
How it was run: as §1

sugar beet = assay: Test B pre/postemergence sugar beet; assay type: in vivo, Beta vulgaris
How it was run: as §1

surinam grass = assay: Test B pre/postemergence surinam grass; assay type: in vivo, Brachiaria decumbens
How it was run: as §1

corn = assay: Test B pre/postemergence corn; assay type: in vivo, Zea mays
How it was run: as §1

blackgrass = assay: Test B pre/postemergence blackgrass; assay type: in vivo, Alopecurus myosuroides
How it was run: as §1

morningglory = assay: Test B pre/postemergence morningglory; assay type: in vivo, Ipomoea hederacea
How it was run: as §1

duck salad = assay: Test B flood test duck salad; assay type: in vivo, Heteranthera limosa
How it was run: as §2

bamyardgrass = assay: Test B flood test barnyardgrass; assay type: in vivo, Echinochloa crus-galli
How it was run: as §2

[1] = Preemergence, Rate 62 g/ha, scale of 0 to 10 where 0 is no effect and 10 is complete control
[2] = Preemergence, Rate 250 g/ha, scale of 0 to 10 where 0 is no effect and 10 is complete control
[3] = Preemergence, Rate 500 g/ha, scale of 0 to 10 where 0 is no effect and 10 is complete control
[4] = Rate 62 g/ha, Postemergence, scale of 0 to 10 where 0 is no effect and 10 is complete control
[5] = Rate 125 g/ha, Postemergence, scale 0 to 10
[6] = Rate 125 g/ha, Preemergence, scale of 0 to 10 where 0 is no effect and 10 is complete control
[7] = Rate 500 g/ha, Postemergence, scale 0 to 10, 0 no effect, 10 complete control
[8] = Rate 62 g/ha, headed Pre-emergence (flood test species), scale 0 to 10 (0 no effect, 10 complete control)
[9] = Rate 125 g/ha, Pre-emergence, flood test species, scale 0 to 10 where 0 is no effect and 10 is complete control
[10] = Rate 250 g/ha, Pre-emergence, flood-test species, scale 0 to 10, 0 is no effect, 10 is complete control
[11] = Rate 500 g/ha, Pre-emergence, flood test species, scale 0 to 10 (0 no effect, 10 complete control)

In the case of `CC(C)N(C(=O)n1oc(=O)n(CC2CC2)c1=O)c1ccc(F)cc1` [Compound 251], the “Cocklebur plant response rating” value (cocklebur; [1]) is reported as 0, the “Cocklebur plant response rating” value (cocklebur; [2]) is reported as 0 and the “Plant response rating, Cocklebur” value (cocklebur; [3]) is reported as 0. The “Cocklebur plant response rating” value (cocklebur; [4]) was 0, the “Cocklebur plant response rating” value (cocklebur; [5]) was 0 and the “Cocklebur plant response rating” value (cocklebur; [6]) was 0. For the same compound, the “Plant response rating (0 to 10; 0 is no effect, 10 is complete control), Cocklebur” value (cocklebur; Rate 250 g/ha, Postemergence) was 0, the “Cocklebur plant response rating” value (cocklebur; [7]) was 3 and the “Crabgrass plant response rating” value (crabgrass; [1]) was 3. For the same compound, the “Crabgrass plant response rating” value (crabgrass; [2]) was 9, the “Plant response rating, Crabgrass” value (crabgrass; [3]) was 10 and the “Crabgrass plant response rating” value (crabgrass; [6]) was 7. For the same compound, the “Plant response rating (0 to 10; 0 is no effect, 10 is complete control), Crabgrass” value (crabgrass; Rate 250 g/ha, Postemergence) was 6, the “Crabgrass plant response rating” value (crabgrass; [7]) was 9 and the “Velvetleaf plant response rating” value (velvetleaf; [1]) was 0. The “Velvetleaf plant response rating” value (velvetleaf; [2]) was 5, the “Plant response rating, Velvetleaf” value (velvetleaf; [3]) was 7 and the “Velvetleaf plant response rating” value (velvetleaf; [6]) was 4. The “Velvetleaf plant response rating” value (velvetleaf; [7]) was 0, the “S. Flatsedge plant response rating” value (smallflower flatsedge; [8]) was 0 and the “S. Flatsedge plant response rating” value (smallflower flatsedge; [9]) was 0. The “S. Flatsedge plant response rating” value (smallflower flatsedge; [10]) was 0, the “S. Flatsedge plant response rating” value (smallflower flatsedge; [11]) was 0 and the “Rice plant response rating” value (rice; [8]) was 0. The “Rice plant response rating” value (rice; [9]) was 0, the “Rice plant response rating” value (rice; [10]) was 0 and the “Rice plant response rating” value (rice; [11]) was 0. The “Wheat plant response rating” value (wheat; [1]) was 0, the “Wheat plant response rating” value (wheat; [2]) was 0 and the “Plant response rating, Wheat” value (wheat; [3]) was 8. The “Wheat plant response rating” value (wheat; [6]) was 0, the “Wheat plant response rating” value (wheat; [7]) was 2 and the “Bedstraw plant response rating” value (bedstraw; [1]) was 0. The “Bedstraw plant response rating” value (bedstraw; [2]) was 10, the “Plant response rating, Bedstraw” value (bedstraw; [3]) was 10 and the “Bedstraw plant response rating” value (bedstraw; [4]) was 2. For the same compound, the “Bedstraw plant response rating” value (bedstraw; [5]) was 6, the “Bedstraw plant response rating” value (bedstraw; [6]) was 0 and the “Plant response rating (0 to 10; 0 is no effect, 10 is complete control), Bedstraw” value (bedstraw; Rate 250 g/ha, Postemergence) was 7. The “Bedstraw plant response rating” value (bedstraw; [7]) was 9, the “Soybean plant response rating” value (soybean; [1]) was 0 and the “Soybean plant response rating” value (soybean; [2]) was 0. The “Plant response rating, Soybean” value (soybean; [3]) was 0, the “Soybean plant response rating” value (soybean; [6]) was 0 and the “Soybean plant response rating” value (soybean; [7]) was 6. For the same compound, the “Rape plant response rating” value (rape; [1]) was 0, the “Rape plant response rating” value (rape; [2]) was 9 and the “Plant response rating, Rape” value (rape; [3]) was 10. For the same compound, the “Rape plant response rating” value (rape; [6]) was 9, the “Plant response rating (0 to 10; 0 is no effect, 10 is complete control), Rape” value (rape; Rate 250 g/ha, Postemergence) was 0 and the “Rape plant response rating” value (rape; [7]) was 0. For the same compound, the “Redroot pigweed plant response rating” value (pigweed; [1]) was 0, the “Redroot pigweed plant response rating” value (pigweed; [2]) was 10 and the “Plant response rating, Redroot pigweed” value (pigweed; [3]) was 10. The “Redroot pigweed plant response rating” value (pigweed; [6]) was 5, the “Plant response rating (0 to 10; 0 is no effect, 10 is complete control), Redroot pigweed” value (pigweed; Rate 250 g/ha, Postemergence) was 2 and the “Redroot pigweed plant response rating” value (pigweed; [7]) was 4. For the same compound, the “Giant foxtail plant response rating” value (giant foxtail; [1]) was 8, the “Giant foxtail plant response rating” value (giant foxtail; [2]) was 10 and the “Plant response rating, Giant foxtail” value (giant foxtail; [3]) was 10. For the same compound, the “Giant foxtail plant response rating” value (giant foxtail; [6]) was 10, the “Plant response rating (0 to 10; 0 is no effect, 10 is complete control), Giant foxtail” value (giant foxtail; Rate 250 g/ha, Postemergence) was 7 and the “Giant foxtail plant response rating” value (giant foxtail; [7]) was 8. For the same compound, the “Plant response rating (0 to 10; 0 is no effect, 10 is complete control), Nutsedge” value (purple nutsedge; Rate 250 g/ha) was 0, the “Nutsedge plant response rating” value (purple nutsedge; Rate 500 g/ha, scale 0 to 10, 0 no effect, 10 complete control) was 0 and the “Wild oats plant response rating” value (wild oat; [1]) was 0. The “Wild oats plant response rating” value (wild oat; [2]) was 8, the “Plant response rating, Wild oats” value (wild oat; [3]) was 9 and the “Wild oats plant response rating” value (wild oat; [6]) was 6. For the same compound, the “Wild oats plant response rating” value (wild oat; [7]) was 0, the “Sugarbeets plant response rating” value (sugar beet; [1]) was 6 and the “Sugarbeets plant response rating” value (sugar beet; [2]) was 10. The “Plant response rating, Sugarbeets” value (sugar beet; [3]) was 10, the “Sugarbeets plant response rating” value (sugar beet; [6]) was 10 and the “Sugarbeets plant response rating” value (sugar beet; [7]) was 2. The “B. signalgrass plant response rating” value (surinam grass; [1]) was 2, the “B. signalgrass plant response rating” value (surinam grass; [2]) was 7 and the “Plant response rating, B. signalgrass” value (surinam grass; [3]) was 9. The “B. signalgrass plant response rating” value (surinam grass; [4]) was 0, the “B. signalgrass plant response rating” value (surinam grass; Rate 125 g/ha, Postemergence, scale 0 (no effect) to 10 (complete control)) was 0 and the “B. signalgrass plant response rating” value (surinam grass; [6]) was 3. For the same compound, the “Plant response rating (0 to 10; 0 is no effect, 10 is complete control), B. signalgrass” value (surinam grass; Rate 250 g/ha, Postemergence) was 0, the “B. signalgrass plant response rating” value (surinam grass; [7]) was 2 and the “Corn plant response rating” value (corn; [1]) was 0. For the same compound, the “Corn plant response rating” value (corn; [2]) was 0, the “Plant response rating, Corn” value (corn; [3]) was 5 and the “Corn plant response rating” value (corn; [4]) was 0. For the same compound, the “Corn plant response rating” value (corn; [5]) was 0, the “Corn plant response rating” value (corn; [6]) was 0 and the “Plant response rating (0 to 10; 0 is no effect, 10 is complete control), Corn” value (corn; Rate 250 g/ha, Postemergence) was 0. The “Corn plant response rating” value (corn; [7]) was 0, the “Blackgrass plant response rating” value (blackgrass; [1]) was 6 and the “Blackgrass plant response rating” value (blackgrass; [2]) was 9. For the same compound, the “Plant response rating, Blackgrass” value (blackgrass; [3]) was 10, the “Blackgrass plant response rating” value (blackgrass; [4]) was 0 and the “Blackgrass plant response rating” value (blackgrass; [5]) was 4. For the same compound, the “Blackgrass plant response rating” value (blackgrass; [6]) was 8, the “Plant response rating (0 to 10; 0 is no effect, 10 is complete control), Blackgrass” value (blackgrass; Rate 250 g/ha, Postemergence) was 8 and the “Blackgrass plant response rating” value (blackgrass; [7]) was 8. For the same compound, the “Morningglory plant response rating” value (morningglory; [1]) was 0, the “Morningglory plant response rating” value (morningglory; [2]) was 0 and the “Plant response rating, Morningglory” value (morningglory; [3]) was 4. The “Morningglory plant response rating” value (morningglory; [6]) was 0, the “Plant response rating (0 to 10; 0 is no effect, 10 is complete control), Morningglory” value (morningglory; Rate 250 g/ha, Postemergence) was 7 and the “Morningglory plant response rating” value (morningglory; [7]) was 9. For the same compound, the “Ducksalad plant response rating” value (duck salad; [8]) was 0, the “Ducksalad plant response rating” value (duck salad; [9]) was 0 and the “Ducksalad plant response rating” value (duck salad; [10]) was 0. For the same compound, the “Ducksalad plant response rating” value (duck salad; [11]) was 0, the “Barnyardgrass plant response rating” value (bamyardgrass; [8]) was 0 and the “Barnyardgrass plant response rating” value (bamyardgrass; [9]) was 0. The “Barnyardgrass plant response rating” value (bamyardgrass; [10]) was 0 and the “Barnyardgrass plant response rating” value (bamyardgrass; [11]) was 0.
